Results published in patent publication US20240101572A1, “DIHYDROOXADIAZINONE COMPOUND AND PHARMACEUTICAL USE THEREOF” (Japan Tobacco Inc., priority 2022, published 2024).
Where two headings read alike, the source gives them in different places.

Columns and labels:
full-length human PLD1 = full-length human PLD1 (Homo sapiens (Human), UniProt Q13393); test: Evaluation of human PLD1 enzyme inhibitory activity (Amplex Red / choline oxidase fluorescence); format: biochemical
Experimental: A method for measuring human PLD1 enzyme inhibitory activity using an enzyme in which a FLAG-tag is added to the N-terminus of full-length human PLD1 (1-1036 amino acids) is shown below.
(§1) DNA fragment in which a FLAG-tag sequence is added to the 5′-end of full-length human PLD1 was amplified by PCR method, using commercially available human PLD1 gene (Promega KK) as a template. The amplified DNA fragment was fused with vector pVL1393 for baculovirus production (Pharmingen) digested with BamHI and EcoRI, using In-Fusion HD Cloning Kit (Takara Bio). The full-length human PLD1-expression plasmid DNA for baculovirus was isolated from Escherichia coli DH5a (TOYOBO) transformed with the obtained In-Fusion reaction product. Next, DNA fragment in which a FLAG-tag sequence is added to the 5′-end of full-length human PLD1 was amplified by PCR method, using the full-length human PLD1-expression plasmid DNA for baculovirus as a template. The amplified DNA fragment was fused with a DNA fragment in which a linker sequence is introduced into pcDNA3.4-TOPO (Life Technologies), using In-Fusion HD Cloning Kit (Takara Bio). The full-length human PLD1-expression plasmid DNA for animal cells was isolated from Escherichia coli DH5a transformed with the obtained In-Fusion reaction product. The base sequence of the full-length human PLD1 cloned into vector was determined by a Dye Terminator method using BigDye Terminator v3.1 Cycle Sequencing Kit (Applied Biosystems). The determined sequence was a sequence in which the FLAG-tag sequence was inserted at the 5′-end of the full-length human PLD1 (GenBank Accession Number: NM_001130081).
(§2) Expi293F cells (Life Technologies) were cultured with shaking using Expi293 Expression Medium (Life Technologies) as a medium at 37° C. in the presence of 8% CO2. The gene introduction reagent PEI was prepared by dissolving Polyethylenimine Max (nominally MW 40,000) (Polysciences) in MilliQ water, adjusting the pH of the solution to 7.0 with NaOH to obtain a 1 mg/mL solution, and then filtering the solution through 0.22 μm filter. The full-length human PLD1-expression plasmid DNA for animal cells was transfected into Expi293F cells using PEI, and after 48 hours of shaking culture, the cells were collected and stored at −80° C.
(§3) To the full-length human PLD1-expressed cells was added a Homogenate buffer (20 mmol/L Na-phosphate pH 7.5, 250 mmol/L NaCl, 1 mmol/L MgCl2, 1% β-OG, 0.05 mmol/L DTT+complete EDTA-free (Roche Diagnostics K.K.)), and the cells were lysed by Microfluidizer Processor M-110EH (Mizuho Kogyo Co., Ltd.). The lysate was centrifuged at 10,100×g at 4° C. for 15 minutes, and the supernatant was collected and filtered through 0.45 μm filter. To the centrifuged supernatant was added ANTI-FLAG M2 Affinity Gel (SIGMA-Aldrich) resin equilibrated with a Homogenate buffer, and the mixed solution was stirred at 4° C. for 1 hr or more. The mixed solution was loaded onto Poly-Prep column, and the resin was washed with a Wash buffer (20 mmol/L Na-phosphate pH 7.5, 150 mmol/L NaCl, 1 mmol/L MgCl2, 0.02% Triton, 0.05 mmol/L DTT). A Wash buffer containing 400 μg/mL DYKDDDDK Peptide (Scrum Inc.) was added to the column to elute the protein bound to the resin. The eluted fractions were subjected to SDS-PAGE followed by CBB staining to identify the fractions containing the full-length human PLD1. The eluted fractions of the full-length human PLD1 were collected and concentrated using Amicon Ultra-15 100k (Merck Millipore). The concentrated fractions were collected, flash-frozen in liquid nitrogen and stored at −80° C.
(§4) A DMSO or test substance solution (the DMSO final concentration: 5%) prepared by diluting DMSO or test substance with an Assay buffer (50 mmol/L HEPES pH 7.5, 80 mmol/L KCl, 3 mmol/L EGTA, 3.6 mmol/L MgCl2, 0.01% NP-40, 0.1% BSA), and the solution was added to a 384 well Assay Plate (Black, Polystyrene, Non-Treated, Cat No. 3573, Corning) by 5 μL/well. […]

full-length human PLD2 = full-length human PLD2 (Homo sapiens (Human), UniProt O14939); test: Evaluation of human PLD2 enzyme inhibitory activity (Amplex Red / choline oxidase fluorescence); format: biochemical
Experimental: A method for measuring human PLD2 enzyme inhibitory activity using an enzyme in which a FLAG-tag is added to the N-terminus of full-length human PLD2 (1-933 amino acids) is shown below.
as §1, with “PLD2” for “PLD1”, “PLD2-expression” for “PLD1-expression”, “NM 002663).” for “NM_001130081).”
as §2, with “PLD2-expression” for “PLD1-expression”
as §3, with “PLD2-expressed” for “PLD1-expressed”, “PLD2.” for “PLD1.”, “PLD2” for “PLD1”
as §4

[1] = full-length human PLD1 enzyme, read-out: PLD1 IC50
[2] = full-length human PLD2 enzyme, read-out: PLD2 IC50

full-length human PLD2, sequence (O14939 whole entry, the tested form may be a part): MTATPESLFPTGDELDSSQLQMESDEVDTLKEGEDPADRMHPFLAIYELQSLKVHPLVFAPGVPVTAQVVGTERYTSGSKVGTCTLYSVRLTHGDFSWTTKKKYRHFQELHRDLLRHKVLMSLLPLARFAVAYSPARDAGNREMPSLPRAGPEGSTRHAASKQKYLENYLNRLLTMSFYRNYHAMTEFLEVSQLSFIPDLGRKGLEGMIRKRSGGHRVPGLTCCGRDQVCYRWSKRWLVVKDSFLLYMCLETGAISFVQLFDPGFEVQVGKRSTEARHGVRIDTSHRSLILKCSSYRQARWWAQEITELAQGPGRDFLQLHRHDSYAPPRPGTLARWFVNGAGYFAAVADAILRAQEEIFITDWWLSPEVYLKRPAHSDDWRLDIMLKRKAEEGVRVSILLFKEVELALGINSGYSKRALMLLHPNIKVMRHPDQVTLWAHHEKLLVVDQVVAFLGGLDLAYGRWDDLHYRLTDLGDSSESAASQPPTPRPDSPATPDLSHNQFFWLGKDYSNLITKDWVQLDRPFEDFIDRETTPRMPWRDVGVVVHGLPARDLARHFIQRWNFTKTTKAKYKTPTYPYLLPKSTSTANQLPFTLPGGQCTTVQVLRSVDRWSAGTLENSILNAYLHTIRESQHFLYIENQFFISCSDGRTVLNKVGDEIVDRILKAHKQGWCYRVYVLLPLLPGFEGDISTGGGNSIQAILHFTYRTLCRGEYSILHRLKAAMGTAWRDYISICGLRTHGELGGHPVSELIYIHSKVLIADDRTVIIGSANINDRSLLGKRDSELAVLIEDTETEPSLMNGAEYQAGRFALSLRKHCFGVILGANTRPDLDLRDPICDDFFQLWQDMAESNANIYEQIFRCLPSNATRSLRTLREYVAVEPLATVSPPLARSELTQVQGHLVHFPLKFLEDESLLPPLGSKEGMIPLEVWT
full-length human PLD1, sequence (Q13393 other isoform, or with tags, fused parts or gaps): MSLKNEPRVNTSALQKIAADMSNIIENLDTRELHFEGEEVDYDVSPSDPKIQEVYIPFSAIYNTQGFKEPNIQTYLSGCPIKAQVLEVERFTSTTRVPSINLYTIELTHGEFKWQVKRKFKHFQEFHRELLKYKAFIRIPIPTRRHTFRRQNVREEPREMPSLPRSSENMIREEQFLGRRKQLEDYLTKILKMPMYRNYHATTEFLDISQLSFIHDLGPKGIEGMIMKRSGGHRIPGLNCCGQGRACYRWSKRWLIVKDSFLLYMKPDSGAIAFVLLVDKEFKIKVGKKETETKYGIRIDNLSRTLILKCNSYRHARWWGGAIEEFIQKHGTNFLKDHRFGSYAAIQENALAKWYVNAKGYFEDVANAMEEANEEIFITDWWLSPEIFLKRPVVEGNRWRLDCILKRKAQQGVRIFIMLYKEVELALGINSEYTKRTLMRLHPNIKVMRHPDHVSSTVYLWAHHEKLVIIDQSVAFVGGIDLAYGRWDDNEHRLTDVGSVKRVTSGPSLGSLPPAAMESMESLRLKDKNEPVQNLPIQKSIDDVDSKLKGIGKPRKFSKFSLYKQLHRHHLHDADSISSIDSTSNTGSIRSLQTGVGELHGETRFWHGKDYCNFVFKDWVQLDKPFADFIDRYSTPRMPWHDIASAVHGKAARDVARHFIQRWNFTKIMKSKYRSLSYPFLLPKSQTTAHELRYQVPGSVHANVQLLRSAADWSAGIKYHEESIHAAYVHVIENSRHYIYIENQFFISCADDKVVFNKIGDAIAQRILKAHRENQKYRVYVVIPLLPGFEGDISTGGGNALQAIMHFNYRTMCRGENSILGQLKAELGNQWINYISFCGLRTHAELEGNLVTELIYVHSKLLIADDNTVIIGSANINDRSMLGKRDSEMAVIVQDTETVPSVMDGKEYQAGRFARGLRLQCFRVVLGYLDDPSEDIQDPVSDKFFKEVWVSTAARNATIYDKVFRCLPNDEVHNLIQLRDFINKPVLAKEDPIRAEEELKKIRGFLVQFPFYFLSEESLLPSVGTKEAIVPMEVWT

| Compound | IC50 (full-length human PLD1; [1]) [nM] | IC50 (full-length human PLD2; [2]) [nM] | IC50 (full-length human PLD1; column 1 of continuation tables 2-12 to 2-14, read-out: human PLD1 enzyme inhibitory activity IC50) [nM] | IC50 (full-length human PLD2; column 2 of continuation tables 2-12 to 2-14, read-out: human PLD2 enzyme inhibitory activity IC50) [nM] |
| --- | --- | --- | --- | --- |
| [2H]C([2H])([2H])NC(=O)C(=O)NC(C)CN1CCC2(CC1)OC(=O)NN=C2c1cc(C#N)ccc1Cl (stereo not shown) [Example 2-008] | 62 | 11 | – | – |
| C[C@@H](C[C@H]1CC[C@]2(CC1)OC(=O)NN=C2c1ccc(F)cc1Br)NC(=O)[C@@H](C)O [Example 28] | 341 | 303 | – | – |
| C[C@@H](C[C@H]1CC[C@]2(CC1)OC(=O)NN=C2c1cccc(OC(F)F)c1Br)NC(=O)c1cnn(C)c1 [Example 309] | 15 | < 10 | – | – |
| C[C@@H](C[C@H]1CC[C@]2(CC1)OC(=O)NN=C2c1cc(C(C)(C)O)ccc1Br)NC(=O)C(=O)NC1CC1 [Example 2-045] | 18 | < 10 | – | – |
| C[C@@H](C[C@H]1CC[C@]2(CC1)OC(=O)NN=C2c1ccc(F)cc1Br)NC(=O)c1cc(C(F)(F)F)n[nH]1 [Example 72] | 34 | 24 | – | – |
| CC(C)C(=O)N[C@@H](C)C[C@H]1CC[C@]2(CC1)OC(=O)NN=C2c1ccc(F)cc1Br [Example 20] | 1650 | 3770 | – | – |
| C[C@@H](CN1CCC2(CC1)OC(=O)NN=C2c1ccc(F)cc1Cl)NC(=O)c1cn(C)nn1 [Example 94] | 68 | 60 | – | – |
| C[C@@H](CN1CCC2(CC1)OC(=O)NN=C2c1ccc(C#N)cc1Br)NC(=O)c1cncn1C [Example 2-059] | 731 | 505 | – | – |
| [2H]C([2H])([2H])NC(=O)C(=O)N[C@@H](C)C[C@]1(OC)CC[C@@]2(CC1)OC(=O)NN=C2c1ccc(F)cc1Br [Example 2-135] | – | – | 20 | < 10 |
| CNC(=O)C(=O)N[C@@H](C)C[C@H]1CC[C@]2(CC1)OC(=O)NN=C2c1cc(Cl)ccc1I [Example 2-044] | < 10 | < 10 | – | – |
| C[C@@H](C[C@H]1CC[C@]2(CC1)OC(=O)NN=C2c1ccc(C#N)cc1Br)NC(=O)N1CCn2nncc2C1 [Example 271] | 18 | < 10 | – | – |
| C[C@@H](C[C@H]1CC[C@]2(CC1)OC(=O)NN=C2c1cc(OC(F)(F)F)ccc1Br)NC(=O)C(=O)NC1CC1 [Example 295] | < 10 | < 10 | – | – |
| C[C@@H](C[C@H]1CC[C@]2(CC1)OC(=O)NN=C2c1ccc(OC(F)(F)F)cc1Br)NC(=O)c1cc2ccccc2o1 [Example 87] | 39 | < 10 | – | – |
| Cc1cc(C(=O)N[C@@H](C)C[C@H]2CC[C@]3(CC2)OC(=O)NN=C3c2cccc(Br)c2)[nH]n1 [Example 25] | 108 | 101 | – | – |
| C[C@@H](CN1CCC2(CC1)OC(=O)NN=C2c1ccc(F)cc1Cl)NC(=O)c1cc(C(F)(F)F)on1 [Example 99] | 241 | 373 | – | – |
| CNC(=O)C(=O)N[C@@H](C)C[C@H]1CC[C@]2(CC1)OC(=O)NN=C2c1cnc(O)cc1C [Example 162] | 322 | 536 | – | – |
| COc1cc(C(=O)N[C@@H](C)C[C@H]2CC[C@]3(CC2)OC(=O)NN=C3c2ccc(F)cc2Br)on1 [Example 69] | < 10 | < 10 | – | – |
| CNC(=O)C(=O)N[C@@H](C)C[C@H]1CC[C@]2(CC1)OC(=O)NN=C2c1cnc(N2CCOCC2)cc1Cl [Example 242] | 16 | < 10 | – | – |
| C[C@@H](C[C@H]1CC[C@]2(CC1)OC(=O)NN=C2c1ccc(F)cc1I)NC(=O)NC1CC1 [Example 245] | 40 | 107 | – | – |
| Cc1cc(C(=O)N[C@@H](C)C[C@H]2CC[C@]3(CC2)OC(=O)NN=C3c2cc(OCC(F)(F)F)ccc2Br)[nH]n1 [Example 298] | 15 | < 10 | – | – |
| CNC(=O)C(=O)N[C@@H](C)C[C@H]1CC[C@]2(CC1)OC(=O)NN=C2c1ccc(Br)cc1 [Example 23] | 39 | 51 | – | – |
| CNC(=O)C(=O)N[C@@H](C)C[C@H]1CC[C@]2(CC1)OC(=O)NN=C2c1ncccc1Br [Example 2-013] | 12 | < 10 | – | – |
| Cc1cc(C(=O)N[C@@H](C)C[C@H]2CC[C@]3(CC2)OC(=O)NN=C3c2cccc(C#N)c2Br)[nH]n1 [Example 317] | 71 | 65 | – | – |
